{"source": "paper PMC9866588", "about": "“Novel 7-Chloro-4-aminoquinoline-benzimidazole Hybrids as Inhibitors of Cancer Cells Growth: Synthesis, Antiproliferative Activity, in Silico ADME Predictions, and Docking” (Molecules, 2023)", "key": {"[1]": {"system": "Hut78 (T-cell lymphoma) cells", "experiment": "MTT antiproliferative assay, HuT78", "assay_type": "cell-based, human", "procedure": "(§1) The growth inhibition activity was assessed according to the slightly modified procedure performed at the National Cancer Institute, Developmental Therapeutics Program.\n(§2) The examined compounds were dissolved in DMSO (1 × 10^−2 M). The experiments were carried out on seven human tumor cell lines and a normal cell line. The following cell lines were used: HeLa (human cervical adenocarcinoma; purchased from ATCC), CaCo-2 (human colorectal adenocarcinoma), MCF-7 (human breast adenocarcinoma), CCRF-CEM (human acute lymphoblastic leukemia), Hut78 (T-cell lymphoma), THP-1 (acute monocytic leukemia), Burkitt lymphoma (Raji), and MDCK1 (Madine–Darby canine kidney). The MDCK1 cells were used between 24 and 26 passages.\n(§3) The adherent cells were cultured in Dulbecco’s modified Eagle medium—DMEM (Gibco, Termo Fisher Scientific Inc., Leicestershire, England, UK), supplemented with 10% heat-inactivated fetal bovine serum (FBS, Gibco, Termo Fisher Scientific Inc., Leicestershire, England, UK), 2 mM glutamine, and 100U/0.1mg penicillin/streptomycin. The cells in suspension were cultured in RPMI 1640 (Gibco, Termo Fisher Scientific Inc., Leicestershire, England, UK) medium, supplemented with 10% FBS (Gibco, Termo Fisher Scientific Inc., Leicestershire, England, UK), 2 mM glutamine, 1 mM sodium pyruvate, and 10 mM HEPES. The cells were grown in a humidified atmosphere under the conditions of 37 °C/5% of CO2 gas in the CO2 incubator (IGO 150 CELLlife^TM, JOUAN, Thermo Fisher Scientific, Waltham, MA, USA).\n(§4) The adherent cells (HeLa, CaCo-2, MCF-7, and MDCK-1) were plated in 96-well flat bottom plates (Greiner, Frickenhausen, Austria) at a concentration of 2 × 10^4 cells/mL. The suspension cells (Raji, THP-1, CCRF-CEM and Hut78) were plated in 96-well microtiter plates (Sarstead, Newton, NC, USA) at a concentration of 1 × 10^5 cells/mL. Twenty-four hours later, the cells were treated with test agents in […] and incubated for a further 72 h. The working dilutions were freshly prepared on the day of testing. The solvent was also tested for eventual inhibitory activity by adjusting its concentration to be the same as in the working concentrations. After 72 h of incubation, the cell growth rate was evaluated by performing the MTT assay, which detects dehydrogenase activity in viable cells. For this purpose, upon completion of the incubation period, the growth medium was discarded and 50 μL of MTT was added to each well at a concentration of 5 mg/mL. After four hours of incubation at 37 °C, the water insoluble MTT-formazan crystals were dissolved in 150 μL of dimethyl-sulfoxide (DMSO) for the adherent cells and in 10% SDS with 0.01 mol/L HCl for the cells grown in suspension. The absorbance (OD, optical density) was measured on a microplate reader (iMark, BIO RAD, Hercules, CA, USA) at 595 nm.\n(§5) The percentage of live cells was calculated as follows: % = OD (sample) − OD (background)/OD (control) − OD (background) × 100.\n(§6) The optical density (OD) of the background for the adherent cells is the OD of the MTT solution and DMSO; the OD (background) for the suspension cells is the OD of the culture medium with MTT and 10% SDS with 0.01 mol/L HCl; the OD (control) is the OD of the cells grown without the tested compounds.\n(§7) The calculation of the GI50 value curves and QC analysis was performed using the Excel tools and GraphPadPrism software (La Jolla, CA, USA), v. 5.03. Briefly, individual concentration effect curves are generated by plotting the logarithm of the concentration of the tested compounds (X) vs. the corresponding percent inhibition values (Y) using the least squares fit. The best-fit GI50 values are calculated using log (inhibitor) versus normalized response—variable slope equation, where Y Ľ 100/(1 ţ 10 ((LogIC50 _ X) × HillSlope)). The QC criteria parameters (Z0, S:B, R2, HillSlope) were checked for every GI50 curve."}, "[2]": {"system": "HeLa (human cervical adenocarcinoma) cells", "experiment": "MTT antiproliferative assay, HeLa", "assay_type": "cell-based", "conditions": "72 h, mean ± SD of three independent experiments", "procedure": "as §1, §2, §3, §4, §5, §6, §7"}, "[3]": {"system": "HuT78 cells", "experiment": "Annexin V-FITC/PI apoptosis detection", "assay_type": "cell-based, human", "conditions": "HuT78, 5 μM, 24 h", "procedure": "The proapoptotic potential of compounds 5d and 12d was tested on the HuT78 cells using the Annexin V-FITC Apoptosis Staining/Detection Kit (ab14085; abcam, UK). The cells were plated in 6-well plates at a concentration of 5 × 10^5 cells/well and treated for 24 h with 12d at a concentration of 5 μM. After the incubation period, the cells were collected and centrifuged at 1100 rpm for 6 min, stained according to the manufacturer‘s protocol, and analyzed by flow cytometry (BD FACSCalibur, Becton Dickinson, San Jose, CA, USA) using FlowJo software (FlowJo, LLC, Ashland, OR, USA)."}, "[4]": {"system": "THP-1 cells", "experiment": "Flow cytometry analysis of cell cycle, THP-1", "assay_type": "cell-based, human", "conditions": "THP-1, 5 μM, 24 h", "procedure": "To analyze the effects of the selected compounds (5d, 8d, and 12d) on the cell cycle of the HuT78 and THP-1 cells, the cells were seeded in 6-well plates (5 × 10^5 cells per well) and treated for 24 h with the selected compounds 5d and 12d (5 μM). The cells were then collected and fixed in cold 70% ethanol. The fixed samples were stained with 15 µg/mL of propidium iodide (PI) at room temperature and analyzed by flow cytometry (FACS Canto II, BD Biosciences). The results were analyzed using FlowLogic software.\nOne-way ANOVA analysis of variance was performed in the MedCalc statistical program for the analysis of the cell cycle. p-values of less than 0.05 were considered to be statistically significant."}, "[5]": {"system": "CCRF-CEM (human acute lymphoblastic leukemia) cells", "experiment": "MTT antiproliferative assay, CCRF-CEM", "assay_type": "cell-based", "conditions": "Homo sapiens, CCRF-CEM; 72 h, MTT, mean ± SD of three independent experiments", "procedure": "as §1, §2, §3, §4, §5, §6, §7"}, "[6]": {"system": "MDCK1 (Madine–Darby canine kidney) cells", "experiment": "MTT antiproliferative assay, MDCK1", "assay_type": "cell-based", "conditions": "mean ± SD of three independent experiments", "procedure": "as §1, §2, §3, §4, §5, §6, §7"}, "[7]": {"system": "THP-1 (acute monocytic leukemia) cells", "experiment": "MTT antiproliferative assay, THP-1", "assay_type": "cell-based, human", "procedure": "as §1, §2, §3, §4, §5, §6, §7"}, "[8]": {"system": "MCF-7 (human breast adenocarcinoma) cells", "experiment": "MTT antiproliferative assay, MCF-7", "assay_type": "cell-based", "conditions": "MCF7, 72 h, mean ± SD of three independent experiments", "procedure": "as §1, §2, §3, §4, §5, §6, §7"}}, "data": [{"smiles": "Clc1ccc2c(Nc3cccc(-c4nc5ccccc5[nH]4)c3)ccnc2c1", "note": "[Compound 5d, N-(3-(1H-benzo[d]imidazol-2-yl)phenyl)-7-chloroquinolin-4-amine]", "values": [{"measurement": "GI50", "setting": "[1]; Homo sapiens, HuT78, 72 h, MTT, mean ± SD of three independent experiments", "value": "0.4 ± 0.3", "unit": "µM"}, {"measurement": "tumor selectivity index (SI) HuT78", "setting": "[1]; with respect to MDCK1 cells", "value": 51}, {"measurement": "GI50", "setting": "[2]", "value": "0.7 ± 0.1", "unit": "µM"}, {"measurement": "cells alive", "setting": "[3]", "value": "about 64%"}, {"measurement": "cells in early apoptosis", "setting": "[3]", "value": 24.75, "unit": "%"}, {"measurement": "cells in late stage of apoptosis/necrosis", "setting": "[3]", "value": 8.3, "unit": "%"}, {"measurement": "proportion of polyploid giant cancer cells", "setting": "[4]", "value": "increased proportion"}, {"measurement": "decrease in G0/G1 phase", "setting": "[4]; vs control", "value": 4.5, "unit": "times"}, {"measurement": "increase in G2/M phase", "setting": "[4]; vs control", "value": 62.8, "unit": "%"}, {"measurement": "increase of cells in subG0/G1 phase", "setting": "[4]; vs control", "value": 2.9, "unit": "times"}, {"measurement": "GI50", "setting": "[5]", "value": "8.2 ± 6.2", "unit": "µM"}, {"measurement": "GI50", "setting": "[6]; 72 h", "value": "20.4 ± 2.8", "unit": "µM"}, {"measurement": "GI50", "setting": "[6]; Canis lupus familiaris, MDCK1, 72 h", "value": "11.4 to 20.4", "unit": "µM"}, {"measurement": "GI50", "setting": "[7]; Homo sapiens, THP-1, 72 h, MTT, mean ± SD of three independent experiments, read-out: GI50 THP1", "value": "0.6 ± 0.3", "unit": "µM"}, {"measurement": "tumor selectivity index (SI) THP1", "setting": "[7]; with respect to MDCK1 cells", "value": 34}, {"measurement": "GI50", "setting": "[8]", "value": "33.6 ± 8.3", "unit": "µM"}]}]}
